# Test results as given in patent publication US20250136578A1 (Kolm Therapeutics Inc., priority 2023, published 2025).
# Target: AR / CBP ternary complex (Homo sapiens, UniProt P10275+Q92793)
# Test: Ternary complex formation assay (sandwich ELISA, AR capture, CBP antibody detection) in VCaP cell lysates
# Type: cell-based
# Conditions: treated 1.5 hours, rabbit CBP or p300 antibody detection, average, read-out: Average Ternary Complex
# Experimental: Black MaxiSorp plates: coat with 50 μL of mouse 1/50 diluted AR antibody (Monoclonal Antibody (AR 441 from Thermo Fisher); diluted in phosphate buffered saline (PBS). Spin the liquid to the bottom of the wells, if necessary. Incubate overnight at 4° C. Next day, wash 3 times with 200 μL of TBST. Block with 200 μL of blocking buffer (5% BSA in TBST) at room temperature for 2 hours (BSA: A4503 or A2153 from Sigma). Wash plates 3 times with TBST. Plates are ready for lysates Preparation of dimerizer treated lysates
# Culture cells in 96 wells at 50K VCaP cells/well for at least 3 days. Plate in 5% Omega charcoal stripped FBS in total volume of 200 uL. Treat with bifunctional for 1.5 hours by adding 1 μL of 200× stock in DMSO. Aspirate media/compound. Add and pipet-to-mix 70 μL of 1× AlphaLisa Lysis Buffer to each well (Perkin Elmer, AlphaLISA SureFire Ultra, diluted in water). Pipet up and down when adding lysis buffer to disrupt cells. Let lysis proceed for 30 min at 4° C.
# Incubate for 1 hour at room temperature. Flick out the lysates. Wash 3 times with TBST. Add 75 μL of rabbit CBP or p300 antibody to each well (diluted 1:5000 in blocking buffer (5% BSA in TBST). CBP antibody: (D6C5) Rabbit mAb #7389; p300 antibody: (D8Z4E) Rabbit mAb #86377. Incubate overnight at 4° C. Wash 3 times with 300 uL TBST, each time on shaker for 5-10 min. Prepare goat anti-rabbit antibody conjugated to HRP (1/100K dilution in blocking buffer) Invitrogen Catalog number: 32260. Add 75 μL of HRP-conjugated goat anti-rabbit antibody. Incubate at room temperature for 1 hour. Flick out the HRP-antibody mixture. Wash 7-8 times with TBST, each time on shaker for 10 min. Later washes try to overflow the wells so that no residual HRP remains bound to the sides of the well. Prepare and add 75 uL/well of QuantaRed Enhance Chemifluorescent HRP Substrate solution. Immediately read fluorescence on BMG ClarioStar (ex: 570/em 585), and repeat the read in 5 minutes and 15 minutes.
# Chain of AR / CBP ternary complex (P10275 whole entry): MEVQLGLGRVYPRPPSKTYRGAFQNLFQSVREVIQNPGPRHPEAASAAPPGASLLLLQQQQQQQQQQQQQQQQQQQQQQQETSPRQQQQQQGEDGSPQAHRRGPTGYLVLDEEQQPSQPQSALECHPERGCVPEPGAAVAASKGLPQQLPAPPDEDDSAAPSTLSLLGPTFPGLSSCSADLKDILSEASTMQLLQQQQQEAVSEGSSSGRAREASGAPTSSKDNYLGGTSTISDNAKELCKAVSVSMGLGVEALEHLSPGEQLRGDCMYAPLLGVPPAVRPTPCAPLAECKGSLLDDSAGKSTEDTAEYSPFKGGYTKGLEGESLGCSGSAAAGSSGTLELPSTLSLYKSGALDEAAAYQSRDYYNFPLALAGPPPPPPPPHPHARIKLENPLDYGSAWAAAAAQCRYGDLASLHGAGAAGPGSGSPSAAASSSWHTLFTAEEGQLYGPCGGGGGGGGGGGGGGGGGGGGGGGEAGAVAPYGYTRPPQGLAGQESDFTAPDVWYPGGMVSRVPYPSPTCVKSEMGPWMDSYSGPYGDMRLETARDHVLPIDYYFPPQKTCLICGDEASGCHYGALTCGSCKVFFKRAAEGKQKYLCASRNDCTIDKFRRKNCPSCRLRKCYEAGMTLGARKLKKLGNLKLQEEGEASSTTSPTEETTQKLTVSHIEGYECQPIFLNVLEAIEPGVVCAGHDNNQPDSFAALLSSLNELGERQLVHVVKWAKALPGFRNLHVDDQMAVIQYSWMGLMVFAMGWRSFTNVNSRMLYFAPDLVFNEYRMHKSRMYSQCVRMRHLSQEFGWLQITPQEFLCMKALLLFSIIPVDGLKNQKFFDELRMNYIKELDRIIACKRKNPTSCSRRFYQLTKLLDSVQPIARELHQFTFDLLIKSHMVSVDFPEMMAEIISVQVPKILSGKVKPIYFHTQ
# Chain of AR / CBP ternary complex (Q92793 2-2442): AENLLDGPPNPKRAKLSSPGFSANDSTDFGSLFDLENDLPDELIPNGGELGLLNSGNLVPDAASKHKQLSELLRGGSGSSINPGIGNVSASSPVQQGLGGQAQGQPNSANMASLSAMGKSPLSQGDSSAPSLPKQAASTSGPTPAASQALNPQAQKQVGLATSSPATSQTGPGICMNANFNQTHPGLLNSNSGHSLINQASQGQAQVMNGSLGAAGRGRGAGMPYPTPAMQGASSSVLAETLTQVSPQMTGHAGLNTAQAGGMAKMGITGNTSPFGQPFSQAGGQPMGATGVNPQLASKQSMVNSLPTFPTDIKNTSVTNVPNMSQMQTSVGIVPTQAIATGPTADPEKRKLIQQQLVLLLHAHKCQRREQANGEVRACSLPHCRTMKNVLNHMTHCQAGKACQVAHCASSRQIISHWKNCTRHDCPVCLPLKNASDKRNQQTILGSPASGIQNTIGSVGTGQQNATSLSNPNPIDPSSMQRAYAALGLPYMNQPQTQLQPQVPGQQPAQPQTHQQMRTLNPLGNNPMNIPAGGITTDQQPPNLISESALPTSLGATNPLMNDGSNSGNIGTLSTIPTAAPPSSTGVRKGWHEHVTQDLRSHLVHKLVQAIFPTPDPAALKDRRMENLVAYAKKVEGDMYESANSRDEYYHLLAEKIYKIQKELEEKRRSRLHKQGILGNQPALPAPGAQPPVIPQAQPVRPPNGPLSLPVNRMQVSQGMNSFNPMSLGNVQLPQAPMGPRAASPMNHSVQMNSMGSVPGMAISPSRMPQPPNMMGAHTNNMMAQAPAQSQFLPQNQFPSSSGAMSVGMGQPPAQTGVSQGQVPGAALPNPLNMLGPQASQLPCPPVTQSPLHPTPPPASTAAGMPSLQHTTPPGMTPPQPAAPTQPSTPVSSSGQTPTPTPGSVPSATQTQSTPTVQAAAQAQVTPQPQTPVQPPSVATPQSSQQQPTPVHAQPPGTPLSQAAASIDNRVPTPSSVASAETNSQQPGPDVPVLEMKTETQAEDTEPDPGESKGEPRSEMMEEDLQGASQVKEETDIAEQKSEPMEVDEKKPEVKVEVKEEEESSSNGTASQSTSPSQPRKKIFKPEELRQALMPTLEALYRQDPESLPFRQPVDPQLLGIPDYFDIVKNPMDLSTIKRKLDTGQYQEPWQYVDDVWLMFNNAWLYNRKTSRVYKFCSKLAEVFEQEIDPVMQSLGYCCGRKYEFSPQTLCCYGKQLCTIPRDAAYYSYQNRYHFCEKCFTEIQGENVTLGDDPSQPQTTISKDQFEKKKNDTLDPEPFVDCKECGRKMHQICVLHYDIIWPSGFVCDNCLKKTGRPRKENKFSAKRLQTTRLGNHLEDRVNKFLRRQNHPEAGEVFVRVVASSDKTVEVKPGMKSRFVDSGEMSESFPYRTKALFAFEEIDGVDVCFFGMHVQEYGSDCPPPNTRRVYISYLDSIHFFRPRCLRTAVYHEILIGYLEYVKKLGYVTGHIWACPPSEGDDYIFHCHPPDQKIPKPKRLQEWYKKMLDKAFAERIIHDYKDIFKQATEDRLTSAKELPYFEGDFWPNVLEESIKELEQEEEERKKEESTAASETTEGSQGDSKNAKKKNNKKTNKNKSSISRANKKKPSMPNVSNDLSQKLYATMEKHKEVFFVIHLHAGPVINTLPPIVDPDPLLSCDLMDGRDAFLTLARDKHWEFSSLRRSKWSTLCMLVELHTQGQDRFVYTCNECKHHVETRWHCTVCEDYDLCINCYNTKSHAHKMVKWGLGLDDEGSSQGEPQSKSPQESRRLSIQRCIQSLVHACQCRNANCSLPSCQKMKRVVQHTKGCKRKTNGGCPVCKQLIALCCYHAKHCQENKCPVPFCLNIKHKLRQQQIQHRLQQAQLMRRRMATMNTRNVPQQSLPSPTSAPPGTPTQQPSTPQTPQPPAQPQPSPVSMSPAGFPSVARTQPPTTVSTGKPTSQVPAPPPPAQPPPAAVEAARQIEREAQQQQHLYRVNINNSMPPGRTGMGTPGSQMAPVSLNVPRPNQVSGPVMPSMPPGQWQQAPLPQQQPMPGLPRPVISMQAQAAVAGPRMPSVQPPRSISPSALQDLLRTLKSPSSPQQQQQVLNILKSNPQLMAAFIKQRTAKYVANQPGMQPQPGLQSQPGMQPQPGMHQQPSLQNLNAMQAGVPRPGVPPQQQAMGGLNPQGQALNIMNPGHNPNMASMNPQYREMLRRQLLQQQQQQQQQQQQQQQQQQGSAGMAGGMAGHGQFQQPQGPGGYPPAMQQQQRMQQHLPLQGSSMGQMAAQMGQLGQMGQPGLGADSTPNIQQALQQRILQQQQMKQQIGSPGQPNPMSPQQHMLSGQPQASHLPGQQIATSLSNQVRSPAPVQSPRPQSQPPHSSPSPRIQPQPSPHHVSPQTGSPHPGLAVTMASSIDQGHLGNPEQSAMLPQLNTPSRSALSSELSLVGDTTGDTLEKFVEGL
row,EC50 [nM],SMILES
1,< 1,"CC(=O)N1CCc2c(c(N3CCCc4cc(-c5cnn(C)c5)c(C(F)F)cc43)nn2[C@H]2CCC3(CC2)C[C@H](Oc2ccc(C(=O)N[C@H]4CC[C@H](Oc5ccc(C#N)c(Cl)c5)CC4)nn2)C3)C1 (mixture of isomers) [Compound 235, 6-((7-(5-acetyl-3-(7-(difluoromethyl)-6-(1-methyl-1H-pyrazol-4-yl)-3,4-dihydroquinolin-1(2H)-yl)-4,5,6,7-tetrahydro-1H-pyrazolo[4,3-c]pyridin-1-yl)spiro[3.5]nonan-2-yl)oxy)-N-((1SR,4SR)-4-(3-chloro-4-cyanophenoxy)cyclohexyl)pyridazine-3-carboxamide]"
2,< 1,"CC(=O)N1CCc2c(c(N3CCCc4cc(-c5cnn(C)c5)c(C(F)F)cc43)nn2[C@H]2CCC3(CC2)C[C@H](Oc2ccc(C(=O)N[C@H]4CC[C@H](Oc5ccc(C#N)c(Cl)c5)CC4)nn2)C3)C1 (mixture of isomers) [Compound 301, 6-((7-(5-acetyl-3-(7-(difluoromethyl)-6-(1-methyl-1H-pyrazol-4-yl)-3,4-dihydroquinolin-1(2H)-yl)-4,5,6,7-tetrahydro-1H-pyrazolo[4,3-c]pyridin-1-yl)spiro[3.5]nonan-2-yl)oxy)-N-((1SR,4SR)-4-(3-chloro-4-cyanophenoxy)cyclohexyl)pyridazine-3-carboxamide]"
3,< 1,CC(=O)N1CCc2c(c(-c3cccc4cc(-c5cnn(C)c5)ncc34)nn2C2CCN(CC3CCN(c4ncc(C(=O)N[C@H]5CC[C@H](Oc6ccc(C#N)c(Cl)c6)CC5)cn4)CC3)CC2)C1 [Compound 6]
4,< 1,"CC(=O)N1CCc2c(c(N3CCCc4cc(-c5cnn(C)c5)ccc43)nn2C2CCN(CC3CCN(c4ncc(C(=O)N[C@H]5CC[C@H](Oc6ccc(C#N)c(Cl)c6)CC5)cn4)CC3)CC2)C1 [Compound 11, 2-[4-[[4-[5-acetyl-3-[6-(1-methylpyrazol-4-yl)-3,4-dihydro-2H-quinolin-1-yl]-6,7-dihydro-4H-pyrazolo[4,3-c]pyridin-1-yl]-1-piperidyl]methyl]-1-piperidyl]-N-[4-(3-chloro-4-cyano-phenoxy)cyclohexyl]pyrimidine-5-carboxamide]"
5,< 1,"CC(=O)N1CCc2c(c(N3CCCc4cc(-c5cnn(C)c5)c(C(F)F)cc43)nn2C2CCN(CC3CCN(c4ncc(C(=O)N[C@H]5CC[C@H](Oc6ccc(C#N)c(Cl)c6)CC5)cn4)CC3)CC2)C1 [Compound 17, 2-[4-[[4-[5-acetyl-3-[7-(difluoromethyl)-6-(1-methylpyrazol-4-yl)-3,4-dihydro-2H-quinolin-1-yl]-6,7-dihydro-4H-pyrazolo[4,3-c]pyridin-1-yl]-1-piperidyl]methyl]-1-piperidyl]-N-[4-(3-chloro-4-cyano-phenoxy)cyclohexyl]pyrimidine-5-carboxamide]"
6,< 1,"CC(=O)N1CCc2c(c(-c3cccc4cc(-c5cnn(CCC6CCN(c7ccc(C(=O)N[C@H]8CC[C@H](Oc9ccc(C#N)c(Cl)c9)CC8)nn7)CC6)c5)ncc34)nn2C2CCOCC2)C1 [Compound 24, 6-[4-[2-[4-[8-(5-acetyl-1-tetrahydropyran-4-yl-6,7-dihydro-4H-pyrazolo[4,3-c]pyridin-3-yl)-3-isoquinolyl]pyrazol-1-yl]ethyl]-1-piperidyl]-N-[4-(3-chloro-4-cyano-phenoxy)cyclohexyl]pyridazine-3-carboxamide]"
7,< 1,"CC(=O)N1CCc2c(c(-c3cccc4cc(-c5cnn(CCN6CCN(c7ccc(C(=O)N[C@H]8CC[C@H](Oc9ccc(C#N)c(Cl)c9)CC8)nn7)CC6)c5)ncc34)nn2C2CCOCC2)C1 [Compound 29, 6-[4-[2-[4-[8-(5-acetyl-1-tetrahydropyran-4-yl-6,7-dihydro-4H-pyrazolo[4,3-c]pyridin-3-yl)-3-isoquinolyl]pyrazol-1-yl]ethyl]piperazin-1-yl]-N-[4-(3-chloro-4-cyano-phenoxy)cyclohexyl]pyridazine-3-carboxamide]"
8,< 1,"CC(=O)N1CCc2c(c(N3CCCc4cc(-c5cnn(C)c5)c(C(F)F)cc43)nn2C2CCN(CC3(F)CCN(c4ccc(C(=O)N[C@H]5CC[C@H](Oc6ccc(C#N)c(Cl)c6)CC5)nn4)CC3)CC2)C1 [Compound 142, 6-[4-[[4-[5-acetyl-3-[7-(difluoromethyl)-6-(1-methylpyrazol-4-yl)-3,4-dihydro-2H-quinolin-1-yl]-6,7-dihydro-4H-pyrazolo[4,3-c]pyridin-1-yl]-1-piperidyl]methyl]-4-fluoro-1-piperidyl]-N-[4-(3-chloro-4-cyano-phenoxy)cyclohexyl]pyridazine-3-carboxamide]"
9,< 1,"CC(=O)N1CCc2c(c(N3CCCc4cc(-c5cnn(C)c5)c(C(F)F)cc43)nn2C2CCc3c(cnn3C3CCN(c4ccc(C(=O)N[C@H]5CC[C@H](Oc6ccc(C#N)c(Cl)c6)CC5)nn4)CC3)C2)C1 (stereo partly shown) [Compound 178, 6-[4-[5-[5-acetyl-3-[7-(difluoromethyl)-6-(1-methylpyrazol-4-yl)-3,4-dihydro-2H-quinolin-1-yl]-6,7-dihydro-4H-pyrazolo[4,3-c]pyridin-1-yl]-4,5,6,7-tetrahydroindazol-1-yl]-1-piperidyl]-N-[4-(3-chloro-4-cyano-phenoxy)cyclohexyl]pyridazine-3-carboxamide]"
10,< 1,"CC(=O)N1CCc2c(c(N3CCCc4cc(-c5ccc(OC6CC7(CCN(c8ccc(C(=O)N[C@H]9CC[C@H](Oc%10ccc(C#N)c(Cl)c%10)CC9)nn8)CC7)C6)cc5)c(C(F)F)cc43)nn2C2CCOCC2)C1 [Compound 203, 6-[2-[4-[1-(5-acetyl-1-tetrahydropyran-4-yl-6,7-dihydro-4H-pyrazolo[4,3-c]pyridin-3-yl)-7-(difluoromethyl)-3,4-dihydro-2H-quinolin-6-yl]phenoxy]-7-azaspiro[3.5]nonan-7-yl]-N-[4-(3-chloro-4-cyano-phenoxy)cyclohexyl]pyridazine-3-carboxamide]"
11,< 1,CC(=O)N1CCc2c(c(N3CCCc4cc(-c5ccc(N6CCC(N7CCN(c8ccc(C(=O)N[C@H]9CC[C@H](Oc%10ccc(C#N)c(Cl)c%10)CC9)nn8)CC7)CC6)nc5)c(C(F)F)cc43)nn2C2CCOCC2)C1 [Compound 215]
12,< 1,CC(=O)N1CCc2c(c(N3CCCc4cc(-c5cnn(C)c5)c(C(F)F)cc43)nn2C2CCN(CC3CCN(c4nnc(C(=O)N[C@H]5CC[C@H](Oc6ccc(C#N)c(Cl)c6)CC5)s4)CC3)CC2)C1 [Compound 225]
13,< 1,"CC(=O)N1CCc2c(c(N3CCCc4cc(-c5cnn(C)c5)c(C(F)F)cc43)nn2C2CCN(C(=O)C3CCN(c4nnc(C(=O)N[C@H]5CC[C@H](Oc6ccc(C#N)c(Cl)c6)CC5)s4)CC3)CC2)C1 [Compound 226, 5-[4-[4-[5-acetyl-3-[7-(difluoromethyl)-6-(1-methylpyrazol-4-yl)-3,4-dihydro-2H-quinolin-1-yl]-6,7-dihydro-4H-pyrazolo[4,3-c]pyridin-1-yl]piperidine-1-carbonyl]-1-piperidyl]-N-[4-(3-chloro-4-cyano-phenoxy)cyclohexyl]-1,3,4-thiadiazole-2-carboxamide]"
14,< 1,"CC(=O)N1CCc2c(c(N3CCCc4cc(-c5cnn(C)c5)c(C(F)F)cc43)nn2C2CCN(C3CCC4(C3)CN(c3ccc(C(=O)N[C@H]5CC[C@H](Oc6ccc(C#N)c(Cl)c6)CC5)nn3)C4)CC2)C1 (stereo partly shown) [Compound 227, 6-[6-[4-[5-acetyl-3-[7-(difluoromethyl)-6-(1-methylpyrazol-4-yl)-3,4-dihydro-2H-quinolin-1-yl]-6,7-dihydro-4H-pyrazolo[4,3-c]pyridin-1-yl]-1-piperidyl]-2-azaspiro[3.4]octan-2-yl]-N-[4-(3-chloro-4-cyano-phenoxy)cyclohexyl]pyridazine-3-carboxamide]"
15,< 1,"CC(=O)N1CCc2c(c(N3CCCc4cc(-c5cnn(C)c5)c(C(F)F)cc43)nn2C2CCN(C3CC4(CCN(c5ccc(C(=O)N[C@H]6CC[C@H](Oc7ccc(C#N)c(Cl)c7)CC6)nn5)C4)C3)CC2)C1 (stereo partly shown) [Compound 228, 6-[2-[4-[5-acetyl-3-[7-(difluoromethyl)-6-(1-methylpyrazol-4-yl)-3,4-dihydro-2H-quinolin-1-yl]-6,7-dihydro-4H-pyrazolo[4,3-c]pyridin-1-yl]-1-piperidyl]-6-azaspiro [3.4]octan-6-yl]-N-[4-(3-chloro-4-cyano-phenoxy)cyclohexyl] pyridazine-3-carboxamide]"
16,1 to 10,"CC(=O)N1CCc2c(c(N3CCCc4cc(-c5cscn5)c(C(F)F)cc43)nn2C2CCN([C@H]3CCCN(c4ccc(C(=O)N[C@H]5CC[C@H](Oc6ccc(C#N)c(Cl)c6)CC5)nn4)C3)CC2)C1 [Compound 260, 6-[(3S)-3-[4-[5-acetyl-3-[7-(difluoromethyl)-6-thiazol-4-yl-3,4-dihydro-2H-quinolin-1-yl]-6,7-dihydro-4H-pyrazolo[4,3-c]pyridin-1-yl]-1-piperidyl]-1-piperidyl]-N-[4-(3-chloro-4-cyano-phenoxy)cyclohexyl]pyridazine-3-carboxamide]"
